What all share (format): functional
The subject of assay [1] is Mus musculus. Nature of the assay: Cicatrizant activity against mouse measured by wound breaking strength at 60 ug/g administered every 12 hrs measured after 48 hrs relative to control.
The subject of assay [2] is Mus musculus. The experiment in a line: Cicatrizant activity against mouse measured by wound breaking strength at 30 ug/g administered every 12 hrs measured after 48 hrs relative to control.
Assay [3] concerns Mus musculus. Nature of the assay: Cicatrizant activity against mouse measured by wound breaking strength at 50 ug/g administered every 12 hrs measured after 48 hrs relative to control.
Assay [4] relates to Mus musculus. The experiment in a line: Cicatrizant activity against mouse measured by wound breaking strength at 12.5 mg/ml administered every 12 hrs measured after 48 hrs relative to control.
In assay [5] the test system is Mus musculus. The experiment in a line: Cicatrizant activity against mouse measured by wound breaking strength at 40 ug/g administered every 12 hrs measured after 48 hrs relative to control.
Assay [6] has as its system Mus musculus. Nature of the assay: Cicatrizant activity against mouse assessed as wound breaking strength per gram of body weight administered every 12 hrs measured after 48 hrs relative to control.
Assay [7] concerns Mus musculus. The experiment in a line: Cicatrizant activity against mouse measured by wound breaking strength at 50 mg/ml administered every 12 hrs measured after 48 hrs relative to control.

On to `CC1(C)CC[C@]2(C(=O)O)CC[C@]3(C)C(=CC[C@@H]4[C@@]5(C)CC[C@H](O)C(C)(C)[C@@H]5CC[C@]43C)[C@@H]2C1` [OLEANOLIC_ACID], for which the Activity in the assay with Mus musculus [1] was 26.2%; with Mus musculus [2], 25.4%; with Mus musculus [3], 30.9%; in the assay with Mus musculus [4], 42.9%; in the assay with Mus musculus [5], 39.3%.
Consider `CC(C)=CCC[C@@](C)(O)[C@@H]1CC=C(C)CC1`, for which the ED50 in the assay on Mus musculus [6] was found to be 155 µg. The same compound yielded an Activity in the assay with Mus musculus [7] of 17.6%.

For the origin of these results see ChEMBL document CHEMBL1157978, “In vivo wound-healing activity of oleanolic acid derived from the acid hydrolysis of Anredera diffusa” (2006).
